Patent US6896914B2, “Method for normalizing insulin levels” (priority 2001, dated 2005)

Tests used:
[1] = system: overweight male human subjects; test: Example 1: double-blind study of enteric coated oral d-mannoheptulose with 1-glutamic acid, serum insulin, glucose and C-peptide; type: in vivo
Description: A six-week double-blind study would also determine if combining an amino acid (i.e., 1-glutamic acid) and enteric coating would enhance the bioavailability and efficacy of oral d-mannoheptulose and prevent diarrhea. The amount of amino acid used was 500 mg per dose.
Thirteen healthy male human subjects, aged thirty-seven to fifty-seven, each at least forty pounds overweight, underwent screening blood testing. The Automated Chemistry Profile used included the following measurements: Serum Glucose, BUN, Creatinine, BUN/Creatinine Ratio, Uric Acid, Sodium, Potassium, Chloride, Carbon Dioxide, Calcium, Phosphorous, Total Protein, Albumin, Globulin, A/G Ratio, Total Bilirubin, Alkaline Phosphatase, LDH, AST, ALT, and Iron. A Lipid Profile, and CBC with Differential were also measured. Tests specific to this study included C-Peptide, Serum Insulin, and Hemoglobin A1c.
Subjects were randomly placed into two groups: “A” (Purple Caps) and “B” (Green Caps). Neither subject nor investigator knew which dosage forms were active and which were placebo. Once a week for three weeks, all subjects came to a local medical office while fasting and, stayed for a period of at least four hours. Blood was drawn from each subject in the fasting state, immediately following a high sugar meal, and at one and three hours after taking 500 mg. of MH. Additionally, fasting blood levels of glucose and insulin were drawn two times a week.
The intent was to cross over the patient test groups at the end of three weeks. But, the response of the group receiving active substance was so obvious that any attempt to continue the double-blind methodology in secrecy was pointless. The active compound group not only stabilized their eating patterns, but also experienced considerable weight loss.
At the end of the third week, the code was broken, confirming that the subjects with the dramatic response were getting the active oral dosage form. Thereafter, all subjects were given the same active dosage form.

[2] = system: overweight hyperinsulinemic male and female subjects; test: Example 2: placebo-controlled crossover study of enteric coated d-manno-heptulose capsules, insulin, glucose, weight; type: in vivo, human
Description: All study subjects had serum insulin, blood glucose, and C-peptide levels drawn. The relationship of insulin to glucose was determined by the following formula: Glucose (mg %)×0.41−34=Insulin Thus: 83 mg % glucose×0.41=34.03−34=0.03 or, insulin vanishes from the blood at 83 mg %. Subjects were male and females under the age of 50, who were at least 45 pounds overweight according to the body mass index (BMI). […] Sixteen subjects were given 500 mg of d-manno-heptulose (MH) in enteric coated capsules. Sixteen subjects were given placebo in similar appearing capsules. All subjects received doses four times a day, which were orally ingested in the presence of the investigator. Insulin and glucose levels were drawn one hour after ingesting capsules, two hours afterwards, and four hours afterwards. C-peptide levels were measured once a day. Patients were asked to keep meal logs, recording everything that they ingested by mouth, on a daily basis, for the duration of the study. The subjects and investigators were both blind to the group receiving active medication. At the end of three weeks, the test groups were switched. The group receiving active dosage forms was switched with the group receiving placebo. The initial time period was designed to be three weeks. However, four patients dropped out because they found the schedule too demanding. Nine of the control group patients expressed a desire to quit, and four were allowed to withdraw. The remaining twenty-four subjects completed the six week period.

[3] = system: Hexokinase; details: cited from earlier work
[4] = system: mammals including man; details: cited from earlier work
[5] = system: obese patients; details: cited from earlier work
[6] = twelve active medication subjects, first three weeks

O=C(CO)[C@@H](O)[C@@H](O)[C@H](O)[C@H](O)CO [MH, d-mannoheptulose]
weight loss and carbohydrate craving reported by participants ([1]; all study participants): significant weight-loss and reduction in carbohydrate craving | average fasting serum insulin lower than baseline ([1]; end of study vs baseline at beginning of study): 26.41% | average reduction in C-peptide levels ([1]; end of study vs baseline, two subjects): 43% | fasting serum glucose higher than baseline ([1]; end of study vs baseline, called insignificant): 1.52% | lowering elevated serum insulin ([1]; enterically coated MH): effective short-term and long-term | nausea or diarrhea ([1]; enterically coated MH): not one instance of nausea or diarrhea was reported | indications of toxicity ([1]; hematological or symptomatic, any subject): no hematological or symptomatic indications of toxicity | glycemic state of participant hypoglycemic at entry ([1]; one study participant): became normalglycemic | serum insulin lower than baseline fasting insulin ([1]; three hours after one dose of MH, same-day glucose challenge, average): 22.4% | average glucose increase ([1]; three hours after one dose of MH, same-day glucose challenge, called insignificant): 1.92% | Fasting insulin ([2]; after active medication for three days, all subjects of A group): 0 | time to begin lowering plasma insulin levels ([2]; after administration): two | tolerance for high-sugar foods ([2]; all MH recipients while on medication): diminished tolerance for high-sugar foods | Fasting insulin ([2]; control group changed from placebo to MH, middle of second day, after six doses): 0 | average per day weight loss ([2]; control group changed from placebo to MH, over twenty-one days): 2.2 lbs. | average weight loss after switch to placebo ([2]; original twelve active patients): 0.7 lbs. per day | duration of insulin suppressing action after switch to placebo ([2]; original twelve active patients, on average): eleven | Average weight loss [2, 6]: 1.6 lbs. per day per subject | greatest weight loss [2, 6]: 1.9 lbs. per day | lowest weight loss [2, 6]: 1.2 lbs. per day | average decrease of insulin levels ([2]; two hours after administration of MH, A group, twelve subjects): 81% | inhibition of hexokinase [3]: inhibits hexokinase in a predominantly competitive manner | effect on insulin release ([4]; mammals including man): lower fasting and glucose stimulated peak insulin release | absorption on oral administration ([4]; oral): poor absorption on oral administration | side effects on oral administration ([4]; oral): unpleasant side effects (e.g., diarrhea, nausea)

CC1=NS(=O)(=O)c2cc(Cl)ccc2N1 [diazoxide]
effect on blood pressure [5]: drops blood pressure dangerously | effect on insulin levels [5]: lowers insulin levels
